Assay results published in ChEMBL document CHEMBL1201862, “PubChem BioAssay data set” (2004).
Activity calls are given as the source filed them.

Legend:
Cytochrome P450 2D6 = Cytochrome P450 2D6 (Homo sapiens, UniProt P10635);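 note: CYP2D6 member of a cytochrome P450 panel assay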
[1] = NIH-3T3 fibroblast cytotoxicity, dose response, cytotoxicity control, cell-based, fluorescence, Alamar Blue, secondary assay (AID 2327); type: functional;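 note: NIH-3T3 mouse fibroblasts cultured with fluconazole at 8 µg/mL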
INS1 = assay: INS-1E survival protection against cytokine death – cell-based, luminescence, retest, dose response (AID 449756); type: functional; settings: Rattus norvegicus;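 note: cell death triggered by IL-1 beta plus TNF-alpha plus IFN-gamma mixture; protective hits raise ATP signal compared with cytokine alone wells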
Cytochrome P450 2C9 = Cytochrome P450 2C9 (Homo sapiens, UniProt P11712)
Sequence of Cytochrome P450 2C9 (P11712 whole entry): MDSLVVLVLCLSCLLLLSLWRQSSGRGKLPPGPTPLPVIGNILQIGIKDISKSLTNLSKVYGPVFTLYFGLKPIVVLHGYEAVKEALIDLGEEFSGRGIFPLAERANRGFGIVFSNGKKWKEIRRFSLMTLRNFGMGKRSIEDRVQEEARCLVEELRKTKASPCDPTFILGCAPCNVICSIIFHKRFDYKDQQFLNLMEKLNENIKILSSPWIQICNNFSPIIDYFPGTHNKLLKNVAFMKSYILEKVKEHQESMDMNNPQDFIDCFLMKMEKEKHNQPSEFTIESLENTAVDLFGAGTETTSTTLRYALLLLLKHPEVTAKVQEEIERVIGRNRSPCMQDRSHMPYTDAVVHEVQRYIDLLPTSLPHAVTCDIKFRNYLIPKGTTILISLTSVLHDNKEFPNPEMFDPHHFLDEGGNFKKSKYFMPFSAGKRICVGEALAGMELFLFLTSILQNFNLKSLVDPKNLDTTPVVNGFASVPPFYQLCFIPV

H4 = assay: Luminescence Cell-Based Dose Response HTS to Identify Activators of 5'UTR Stem-Loop Driven Prion Protein mRNA Translation in H4 Neuroglioblastoma Cells. [Related pubchem assays: 1829 (Project Summary), 1814 (Primary HTS)]; type: functional; settings: Homo sapiens
[2] = Luminescence Cell-Based Dose Response HTS to Identify Activators of Luciferase Translation or Activity in H4 […] Cells. [Related pubchem assays: 1829 (Project Summary), 1814 (Primary HTS)]; type: functional
Cytochrome P450 3A4 = Cytochrome P450 3A4 (Homo sapiens, UniProt P08684);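 note: CYP3A4 tested as one member of a cytochrome P450 panel screen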
Sequence of Cytochrome P450 3A4 (P08684 whole entry): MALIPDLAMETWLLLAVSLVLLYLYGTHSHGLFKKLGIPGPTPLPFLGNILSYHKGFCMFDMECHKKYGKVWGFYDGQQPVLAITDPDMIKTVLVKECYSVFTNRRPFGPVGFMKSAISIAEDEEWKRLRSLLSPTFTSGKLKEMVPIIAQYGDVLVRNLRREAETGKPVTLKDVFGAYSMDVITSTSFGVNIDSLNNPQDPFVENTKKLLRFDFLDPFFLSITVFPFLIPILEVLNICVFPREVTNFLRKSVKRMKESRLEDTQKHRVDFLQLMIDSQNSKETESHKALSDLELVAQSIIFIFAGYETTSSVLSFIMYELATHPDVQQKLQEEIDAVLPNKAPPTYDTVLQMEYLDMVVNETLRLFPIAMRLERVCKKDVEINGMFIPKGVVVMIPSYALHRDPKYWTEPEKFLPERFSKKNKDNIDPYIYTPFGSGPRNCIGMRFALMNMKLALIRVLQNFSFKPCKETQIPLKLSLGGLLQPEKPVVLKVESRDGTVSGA

Cytochrome P450 2C19 = Cytochrome P450 2C19 (Homo sapiens, UniProt P33261); assay: Cytochrome panel assay with activity outcomes. Panel member name: p450-cyp2c19 Compounds with AC50 equal or less than 10 uM are considered active; type: functional; settings: read-out: AC50
Sequence of Cytochrome P450 2C19 (P33261 whole entry): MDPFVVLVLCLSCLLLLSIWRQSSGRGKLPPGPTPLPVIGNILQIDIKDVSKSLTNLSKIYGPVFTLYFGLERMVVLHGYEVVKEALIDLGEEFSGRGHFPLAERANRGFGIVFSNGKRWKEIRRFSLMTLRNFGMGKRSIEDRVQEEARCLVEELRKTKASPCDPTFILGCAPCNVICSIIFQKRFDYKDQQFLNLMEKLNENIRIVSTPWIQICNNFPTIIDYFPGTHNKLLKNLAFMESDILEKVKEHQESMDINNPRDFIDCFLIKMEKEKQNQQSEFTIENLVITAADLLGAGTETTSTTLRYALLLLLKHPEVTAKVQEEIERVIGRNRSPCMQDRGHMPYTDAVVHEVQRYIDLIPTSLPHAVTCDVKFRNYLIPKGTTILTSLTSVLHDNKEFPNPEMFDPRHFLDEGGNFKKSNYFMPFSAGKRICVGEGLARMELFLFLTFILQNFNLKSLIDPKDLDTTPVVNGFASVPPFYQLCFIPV

[3] = biological target: T1, Corticotropin-releasing factor receptor 2/Corticotropin-releasing factor-binding protein (Homo sapiens, UniProt P24387+Q13324); assay: activators of CRF receptor 2 with binding protein – uHTS hits, confirmation (AID 602473); type: functional; settings: read-out: EC50_Mean
T1 sequence (Q13324 whole entry): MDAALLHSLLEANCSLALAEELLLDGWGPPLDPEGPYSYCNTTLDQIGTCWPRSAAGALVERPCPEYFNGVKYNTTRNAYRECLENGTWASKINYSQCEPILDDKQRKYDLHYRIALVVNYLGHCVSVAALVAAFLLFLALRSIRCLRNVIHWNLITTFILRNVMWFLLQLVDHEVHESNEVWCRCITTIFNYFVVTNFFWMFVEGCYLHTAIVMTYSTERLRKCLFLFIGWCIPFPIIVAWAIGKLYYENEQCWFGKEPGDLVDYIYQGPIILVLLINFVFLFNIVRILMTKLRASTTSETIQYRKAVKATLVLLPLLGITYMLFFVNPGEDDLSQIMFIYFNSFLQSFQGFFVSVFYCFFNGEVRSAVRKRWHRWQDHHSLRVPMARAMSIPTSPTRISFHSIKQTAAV
T1 sequence (P24387 whole entry): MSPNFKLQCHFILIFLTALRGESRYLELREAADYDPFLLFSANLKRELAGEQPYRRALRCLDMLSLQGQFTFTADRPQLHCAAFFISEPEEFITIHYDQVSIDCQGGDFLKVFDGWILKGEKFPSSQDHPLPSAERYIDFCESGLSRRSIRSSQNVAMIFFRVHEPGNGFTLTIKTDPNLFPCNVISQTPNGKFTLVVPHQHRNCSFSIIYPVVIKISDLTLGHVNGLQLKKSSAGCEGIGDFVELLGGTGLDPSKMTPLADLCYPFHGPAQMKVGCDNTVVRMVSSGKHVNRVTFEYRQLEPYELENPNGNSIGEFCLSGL

Cytochrome P450 1A2 = biological target: T2, Cytochrome P450 1A2 (Homo sapiens, UniProt P05177);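 note: PubChem cytochrome P450 panel assay, CYP1A2 panel member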
T2 sequence (P05177 whole entry): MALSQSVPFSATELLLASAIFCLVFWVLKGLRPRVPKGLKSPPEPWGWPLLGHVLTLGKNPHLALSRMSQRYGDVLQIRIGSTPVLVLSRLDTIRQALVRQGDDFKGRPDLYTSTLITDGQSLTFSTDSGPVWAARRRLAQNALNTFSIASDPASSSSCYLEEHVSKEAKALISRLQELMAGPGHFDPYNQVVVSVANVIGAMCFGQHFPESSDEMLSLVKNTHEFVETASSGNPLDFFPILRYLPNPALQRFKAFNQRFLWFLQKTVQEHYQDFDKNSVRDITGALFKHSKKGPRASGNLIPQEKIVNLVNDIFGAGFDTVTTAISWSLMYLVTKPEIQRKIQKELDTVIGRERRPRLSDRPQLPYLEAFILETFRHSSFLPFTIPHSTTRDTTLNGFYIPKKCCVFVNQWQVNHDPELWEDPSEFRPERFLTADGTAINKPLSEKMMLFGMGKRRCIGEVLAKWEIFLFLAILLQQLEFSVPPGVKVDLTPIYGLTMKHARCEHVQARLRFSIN

[4] = NIH3T3 cell viability loss – ATP luminescence, mouse fibroblasts, counter-screen, dose response (AID 2010); type: functional, cell-based;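 note: cells exposed to compound for about 90 hours before reading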
[5] = Trypanosoma cruzi growth suppression in host cells – NIH3T3 host cells, beta-gal luminescence, confirmation (AID 2044); type: functional, cell-based;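 note: intracellular parasites grown in NIH/3T3 mouse fibroblasts as host cells; luminescent beta-galactosidase reporter signal from transgenic T. cruzi replicating inside host cells; inhibitors lower the luminescence signal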
[6] = Luminescence Cell-Based Dose Retest to Confirm Inhibitors of Cancer Stem Cells. [Related pubchem assays (depositor defined):AID2717, AID2721]; type: functional; settings: Homo sapiens

Sequence of Cytochrome P450 2D6 (P10635 whole entry): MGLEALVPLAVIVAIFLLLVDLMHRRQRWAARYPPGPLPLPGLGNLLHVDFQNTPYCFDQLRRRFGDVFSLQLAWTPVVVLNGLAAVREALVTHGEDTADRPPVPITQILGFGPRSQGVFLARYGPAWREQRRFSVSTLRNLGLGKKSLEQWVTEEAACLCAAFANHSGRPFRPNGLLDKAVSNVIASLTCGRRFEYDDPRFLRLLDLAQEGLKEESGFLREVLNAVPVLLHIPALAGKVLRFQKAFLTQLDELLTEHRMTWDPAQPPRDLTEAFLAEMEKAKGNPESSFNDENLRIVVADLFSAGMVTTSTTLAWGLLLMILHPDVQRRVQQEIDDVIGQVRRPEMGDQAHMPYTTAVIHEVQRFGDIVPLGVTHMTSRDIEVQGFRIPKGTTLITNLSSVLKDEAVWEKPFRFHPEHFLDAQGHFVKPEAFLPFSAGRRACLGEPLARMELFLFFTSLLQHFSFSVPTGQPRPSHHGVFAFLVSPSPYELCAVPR

COc1cccc([C@H]2Oc3ccc(OC)cc3/C(=N\OC[C@@H](O)[C@@H]3O[C@@H]4OC(C)(C)O[C@@H]4[C@H]3O)[C@@H]2O)c1
AC50 (Cytochrome P450 2D6): 3.16 µM (inconclusive)

COc1ccc(-c2cc(-c3c(O)c(OC)c4occc4c3OC)[nH]n2)cc1
EC50 [1]: 25.8 µM (active)

COc1ccc2[nH]c(/C(C#N)=C\c3ccc(Oc4ccc([N+](=O)[O-])cn4)cc3)nc2c1
AC50 (INS1): 3.64 µM (active)

COc1ccc(O[C@H]2C=C[C@@H](c3ccccc3)O[C@H]2COC(=O)CC/C(C)=N\O[C@@H](C)CN2CCCc3nc(C)c(C)cc32)cc1
AC50 (Cytochrome P450 2C9): 3.98 µM (inconclusive)

Cc1ccnc(N(C(=O)Nc2ccccc2)C2=NCC(C)(C)S2)c1
EC50 (H4): > 120 µM (not active) | EC50 [2]: 0.709 µM (active)

COc1ccc(N2CCN(C(S)=Nc3cccc(C)c3)CC2)cc1
AC50 (Cytochrome P450 2C9): 0.00562 µM (inconclusive) | AC50 (Cytochrome P450 3A4): 2.24 µM (inconclusive)

CSc1nnc(-c2cc3c(-c4ccccc4)nn(C)c3s2)n1C
AC50 (Cytochrome P450 2C9): 3.55 µM (inconclusive) | AC50 (Cytochrome P450 2C19): 22.4 µM (inconclusive) | AC50 (Cytochrome P450 3A4): 31.6 µM (inconclusive)

CC(=O)Nc1ccc(Sc2ncccc2C(=O)Nc2ccc(F)cc2)cn1
AC50 (Cytochrome P450 2C9): 10 µM (inconclusive) | EC50 [3]: 1.97 µM (active) | AC50 (Cytochrome P450 2C19): 39.8 µM (inconclusive) | AC50 (Cytochrome P450 3A4): 15.8 µM (inconclusive)

O=C(NCc1ccccc1)C1=C[C@H](c2csc3ccccc23)C[C@H](OCCCCO)O1
AC50 (INS1): 5.81 µM (active)

COc1ccc([N+](=O)[O-])cc1NC1C2CC3CC(C2)CC1C3 (configuration not stated)
AC50 (Cytochrome P450 2C9): 22.4 µM (inconclusive) | AC50 (Cytochrome P450 3A4): 11.2 µM (inconclusive)

Cc1cccc(CNc2nc(-c3cccc(NS(C)(=O)=O)c3)nc3ccccc23)c1
AC50 (Cytochrome P450 2C9): 0.501 µM (inconclusive)

COc1ccc(Oc2nnc(C)c3ccccc23)cc1
EC50 (H4): 5.97 µM (active) | EC50 [2]: 2.76 µM (active)

Cn1c2c(c(=O)n(C)c1=O)C1(C(=O)Nc3ccccc31)C(C#N)=C(N)O2 (configuration not stated)
AC50 (Cytochrome P450 2D6): 14.1 µM (inconclusive) | AC50 (Cytochrome P450 1A2): 25.1 µM (inconclusive) | AC50 (Cytochrome P450 3A4): 22.4 µM (inconclusive)

O=C(OCc1cccc(F)c1)c1ccc2c(c1)-c1ccccc1C2=O
AC50 (Cytochrome P450 2C9): 10 µM (inconclusive) | AC50 (Cytochrome P450 2D6): 0.355 µM (inconclusive)

CCC(=O)NCCNC(=O)c1c(SC)nsc1SC
AC50 (Cytochrome P450 2C9): 12.6 µM (inconclusive) | AC50 (Cytochrome P450 2C19): 39.8 µM (inconclusive) | AC50 (Cytochrome P450 1A2): 3.16 µM (inconclusive)

FC(F)(F)c1ccccc1-c1nc(N2CCOCC2)c2ccccc2n1
AC50 (Cytochrome P450 2D6): 25.1 µM (inconclusive) | AC50 (Cytochrome P450 3A4): 12.6 µM (inconclusive)

Cc1ccc(Nc2nnc(-c3ccc4c(c3)OCO4)o2)c(C)c1
AC50 (Cytochrome P450 2C9): 7.94 µM (inconclusive)

CC1=NN(C(=O)c2ccncc2)C(=O)[C@@H]1/N=N\c1ccc2ccccc2c1
AC50 (Cytochrome P450 2D6): 3.16 µM (inconclusive) | AC50 (Cytochrome P450 2C19): 3.98 µM (inconclusive) | AC50 (Cytochrome P450 3A4): 3.98 µM (inconclusive)

N#Cc1c(-c2ccc(F)cc2)cc(C2CC2)nc1SCC(=O)c1cccs1
EC50 [3]: > 53 µM (inactive)

COc1ccc(C(=O)C/C(=C\C(=O)c2ccc(C)cc2)c2ccccc2)cc1
EC50 [4]: > 60 µM (not active) | AC50 (INS1): 7 µM (active) | EC50 [5]: 1.93 µM (active)

O=c1c(Oc2ccccc2Br)c(C(F)(F)F)oc2c(CN3CCCC3)c(O)ccc12
AC50 (Cytochrome P450 2D6): 17.8 µM (inconclusive) | AC50 (Cytochrome P450 2C19): 39.8 µM (inconclusive) | AC50 (Cytochrome P450 1A2): 17.8 µM (inconclusive)

Cc1cccc(NC(=N)Nc2nc(C)cc(C)n2)c1
EC50 [3]: 10.7 µM (active)

CCOC(=O)c1sc(SC)c2c1CCC/C2=N/OC
AC50 (INS1): > 260 µM (inactive)

O=C(CSc1cn(Cc2ccccc2)c2ccccc12)Nc1nccs1
EC50 (H4): 5.48 µM (active) | EC50 [2]: 0.244 µM (active)

COc1ccc(C(=O)N2CCC3(CCCN(Cc4ccncc4)C3)CC2)cc1
AC50 (Cytochrome P450 2D6): 12.6 µM (inconclusive)

COC(=O)C1(CC(C)C)C=C2C(=C(C(C)C)C(=O)C2C)CN1 (configuration not stated)
AC50 (Cytochrome P450 2D6): 25.1 µM (inconclusive) | AC50 (Cytochrome P450 2C19): 25.1 µM (inconclusive) | AC50 (Cytochrome P450 1A2): 15.8 µM (inconclusive) | AC50 (Cytochrome P450 3A4): 20 µM (inconclusive)

O=C1CC[C@](CCc2nc3ccccc3[nH]2)(c2ccccc2)C(=O)N1
AC50 (Cytochrome P450 2D6): 2.51 µM (inconclusive)

CCN(CC)CCOC(=O)c1c(C)n(C)c2ccc(OC)cc12
AC50 (Cytochrome P450 2D6): 28.2 µM (inconclusive) | AC50 (Cytochrome P450 2C19): 39.8 µM (inconclusive)

Cc1cccc(NC(=O)C2CCN(S(=O)(=O)c3cccc4nsnc34)CC2)n1
AC50 (Cytochrome P450 2C9): 14.1 µM (inconclusive) | AC50 (Cytochrome P450 2D6): 14.1 µM (inconclusive) | AC50 (Cytochrome P450 1A2): 0.0794 µM (inconclusive)

O=C(O)c1ccc2c(c1)C(=O)N(C(Cc1ccc(O)cc1)C(=O)O)C2=O (configuration not stated)
AC50 (Cytochrome P450 2D6): 0.01 µM (inconclusive)

CC(C)N1CCN(c2ccncc2S(=O)(=O)N2CCCCC2)CC1
AC50 (Cytochrome P450 2D6): 3.98 µM (inconclusive)

CC(=O)N1CCC2(CC1)CCN(c1ccncc1)CC2
AC50 (Cytochrome P450 2C9): 25.1 µM (inconclusive)

CC(=O)c1ccc(NC(S)=NCCc2cccc(Cl)c2)cc1
EC50 (H4): > 120 µM (not active) | EC50 [2]: 2.64 µM (active)

Cc1ccc(S(=O)(=O)N/N=C/c2ccc(OC3CSC3)cc2)cc1
EC50 [3]: 5.51 µM (active) | AC50 (Cytochrome P450 2C19): 4.47 µM (inconclusive)

CC(=O)Nc1ccc(C2=NN(CC#N)C(=O)SC2)cc1
AC50 (Cytochrome P450 2C9): 8.91 µM (inconclusive) | AC50 (Cytochrome P450 1A2): 15.8 µM (inconclusive)

Cn1c(=O)c(-c2ccccc2)nc2cnc(OCc3ccccc3)nc21
AC50 (Cytochrome P450 2C9): 20 µM (inconclusive) | AC50 (Cytochrome P450 2C19): 39.8 µM (inconclusive) | AC50 (Cytochrome P450 3A4): 39.8 µM (inconclusive)

CSc1nc(C)cc(OCC(=O)N/N=C/c2ccccc2O)n1
AC50 [6]: 3.38 µM (active)

COc1ccc(NC(=O)C2(c3ccc(NC(=O)c4ccc(OC(C)=O)cc4)cc3)CCCC2)cc1
AC50 (Cytochrome P450 2C9): 1.26 µM (inconclusive)

O=C(c1ccncc1)N1CCC2(CCN(Cc3ccncc3)CC2)CC1
AC50 (Cytochrome P450 2C9): 20 µM (inconclusive) | AC50 (Cytochrome P450 2D6): 25.1 µM (inconclusive) | AC50 (Cytochrome P450 3A4): 15.8 µM (inconclusive)

COCCCNC(=O)[C@H]1N2C(=O)c3ccccc3C2SC1(C)C (some centres not stated)
EC50 [3]: > 53 µM (inactive)

O=C(CNS(=O)(=O)c1cccs1)N1CCC2(CC1)OCCO2
AC50 (Cytochrome P450 2C9): 39.8 µM (inconclusive)

O=C(N/N=C/c1cc([N+](=O)[O-])ccc1O)c1c[nH]c2ccccc12
AC50 [6]: 6.85 µM (active)
